Experimental data: article PMC2688476, “Low affinity glucocorticoid binding site ligands as potential anti-fibrogenics” (Comparative Hepatology, 2009)

Columns and labels:
[1] = target: low affinity glucocorticoid binding site (LAGS) in rat liver microsomes (Rattus norvegicus, UniProt P70580); test: Competition with radiolabelled dexamethasone for specific binding to rat liver microsomes (LAGS activity); settings: read-out: IC50% (competition of substituted progestins for binding to rat liver microsomes); Additional file 1; vs radiolabelled dexamethasone
Sequence of low affinity glucocorticoid binding site (LAGS) in rat liver microsomes (P70580 2-195): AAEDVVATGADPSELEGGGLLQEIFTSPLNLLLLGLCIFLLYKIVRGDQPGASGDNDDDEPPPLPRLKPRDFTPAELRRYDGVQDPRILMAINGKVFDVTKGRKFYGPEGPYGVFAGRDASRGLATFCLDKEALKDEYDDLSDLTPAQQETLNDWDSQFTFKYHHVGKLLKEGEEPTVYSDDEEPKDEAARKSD
Protocol: A small volume of each incubation was removed to determine the total ligand concentration ([L0]) prior to removal of free unbound ligand by dextran/charcoal adsorption. […] Free ligand concentration at equilibrium was calculated by subtracting specifically bound ligand at equilibrium from the total ligand concentration (i.e. [L0] - [LRe]) and assumes receptor-ligand stoichiometry of 1:1.
In brief, rats were anaesthetized with pentobarbital and a 16G cannula inserted into the hepatic portal vein and secured. […] The liver was then excised and chopped roughly with ice-cooled TS buffer (10 mM Tris/HCl pH 7.4 containing 250 mM sucrose) and disrupted using a Potter-Elvehjem homogenisor. The resultant homogenate was then centrifuged at 12,000 g for 20 minutes at 4°C and the supernatant retained and centrifuged at 100,000 g for 60 minutes at 4°C. The resultant "microsomal" pellet was re-suspended in fresh TS buffer and re-centrifuged at 100,000 g to obtain a washed microsomal pellet. […] After overnight incubation on ice, free ligand was removed by charcoal dextran adsorption and bound radioligand determined in supernatants by liquid scintillation, essentially as previously described.

CYP3A1/3A23 = test: Screening for PXR activators in rat hepatocytes via CYP3A induction (Western blot); format: cell-based; settings: rat
CYP3A4 = test: Screening for PXR activators in human hepatocytes via CYP3A induction (Western blot); format: cell-based; settings: human
rat HSCs = test: Rat HSC-to-myofibroblast trans-differentiation (α-smooth muscle actin Western blot); format: cell-based; settings: α-sma Western blot after 9 days of treatment
Protocol: (§1) Figure 5 Screening for inhibitors of trans-differentiation in rat and human HSCs – Part 1. Rat HSCs were isolated and cultured for 2 days (T0) whereupon cells were treated with the indicated compound as outlined in methods section. After 9 days, cells were analyzed by Western blotting for α-smooth muscle actin (α-sma). Each lane contains 10 μg total protein/lane, results typical of at least 3 separate experiments (a). Human HSCs were treated with the indicated compound and confluence determined in randomly selected fields. Data are the mean and standard deviation confluence at day 12 of 3 separate treatment dishes from the same donor, typical of at least 3 separate donors (b).
(§2) HSCs were isolated from rats (250–300 g body weight, Harlan, UK) by sequential pronase/collagenase perfusion of the liver followed by density gradient centrifugation and elutriation as previously outlined. Human HSCs were isolated by an essentially similar procedure using discarded tissue from patients undergoing a hepatectomy with patient consent and ethical approval by the Grampian Regional Ethical Committee. HSCs were seeded onto plastic culture dishes and cultured in Dulbecco's modified Eagle Medium (DMEM) containing 4.5 g/l of glucose and supplemented with 5% or 16% (v/v) fetal calf serum (for rat or human respectively), […] penicillin, 80 μg/ml streptomycin and 32 μg/ml gentamycin. Additional treatments were made by addition of compounds in an ethanol vehicle (stock solutions at 1000× final concentration). Ethanol at 0.1% (v/v) acted as control. Frequency of treatment (3 treatments per week/2 medium changes per week), as previously described.

human HSCs = test: Human HSC trans-differentiation/proliferation (confluence, α-sma); format: cell-based; settings: confluence at day 12
Protocol: as §1
Figure 6 Screening for inhibitors of trans-differentiation in rat and human HSCs – Part 2. Photomicrographs of human HSCs at day 12 of culture with the indicated treatment (a); levels of expression of α-smooth muscle actin (α-sma) (b) and levels of expression of fibrogenic marker mRNA transcripts in human HSCs after treatment selected compounds for 19 days. Data are the mean and standard deviation relative transcript level from 3 separate treatments on cells from the same donor, typical of at least 3 separate donors (c).
as §2

human myofibroblasts = test: Fibrogenic marker mRNA transcripts (TGFβ, TIMP1, collagen 1A1) in human myofibroblasts, qRT-PCR; format: cell-based; settings: treatment for 19 days
Excerpt: Quantitative transcript expression was examined after reverse transcription (using a Taqman reverse transcription kit (Applied Biosystems)) using a PE Applied Biosystems ABI7700 and PE Applied Biosystems Gene Expression Assay™, incorporating sequence-specific forward, reverse and fluorescently labelled probes (see Table 2).

[2] = Pilot toxicity study in adult male rats; format: in vivo, rat; settings: 3 days at up to 100 mg/kg body weight i.p.; 24 hours after final treatment
Protocol: Since there was no information in the literature regarding any potential adverse effects of 4A3COOHmethyl administration, a pilot toxicity study was initially undertaken, in which adult male rats were administered 4A3COOHmethyl for 3 days at up to 100 mg/kg body weight by i.p. injection.

[3] = tested on: rat CCl4 model of liver fibrosis; test: Rat CCl4 model of liver fibrosis; format: in vivo; settings: 20 mg/kg i.p. weekly, 8 weeks CCl4
Protocol: To examine the effects of 4A3COOHmethyl on fibrosis, adult male rats were treated with 20 mg/kg body weight by i.p. injection every week during an 8 week twice weekly treatment with CCl4, to generate liver fibrosis. A reduced dose of 20 mg/kg body weight was chosen because the compound was to be administered to rats with compromised liver function. To avoid potential interactions with CCl4, toxicity (i.e., reductions in CCl4 hepatotoxicity that could be misinterpreted as anti-fibrogenic effects), 4A3COOHmethyl was not administered within a 48 hour period of CCl4 administration. Previous work has established that a similar dose of PCN – using the same dosing regimen – is sufficient to modulate fibrosis in animal models of fibrosis.
Figure 7 4A3COOHmethyl administration and liver fibrosis in a rat CCl4 model of liver fibrosis. […] Mean and standard deviation serum ALT (a); Mean and standard deviation collagen 1A1 mRNA levels (b); typical views of liver sections stained for sirius red, with a 100 μm scale bar (b); quantitative image analysis for fibrosis – data are the mean and standard deviation percentage sirius red staining from at least 4 separate animals in each treatment with at least 10 randomly selected fields examined for each animal (c). […]

COC(=O)[C@H]1CC[C@H]2[C@@H]3CCC4=CC(=O)CC[C@]4(C)[C@H]3CC[C@]12C [4A3COOHmethyl, 4 androstene-3-one 17β-carboxylic acid methyl ester]
IC50 [1]: 100 nM
activity as a PXR activator, rat (CYP3A1/3A23): no activity
activity as a PXR activator, human (CYP3A4): no activity
inhibition of rat HSC trans-differentiation (rat HSCs): effective
inhibitory activity on human HSC trans-differentiation (human HSCs): significant inhibitory activity
expression of TGFβ, TIMP1 and collagen 1A1 mRNAs in human myofibroblasts (human myofibroblasts): inhibited the expression of all mRNAs
adverse effects (liver serum enzyme levels and liver pathology) [2]: no adverse effects were observed
fibrosis severity (α-sma staining, collagen 1a1 mRNA, sirius red staining) [3]: did not significantly affect
serum levels of ALT [3]: did not affect
